Experimental data published in ChEMBL document CHEMBL5385898, “Recent advances in nuclear receptor-binding SET domain 2 (NSD2) inhibitors: An update and perspectives” (Eur J Med Chem, 2023).
Values belong to the compound of their own block, whether it stands above or below them.

Columns and labels:
[1] = Inhibition of GST-tagged NSD3 (247 to 398 residues) (unknown origin) /PWWP1 (unknown origin) protein-protein interaction incubated for 60 mins by TR-FRET assay; parameters: species or system Homo sapiens
[2] = biological target: T1, Histone-lysine N-methyltransferase NSD2 (Homo sapiens, UniProt O96028); test: Inhibition of MMSET (unknown origin)
T1 sequence (O96028 whole entry): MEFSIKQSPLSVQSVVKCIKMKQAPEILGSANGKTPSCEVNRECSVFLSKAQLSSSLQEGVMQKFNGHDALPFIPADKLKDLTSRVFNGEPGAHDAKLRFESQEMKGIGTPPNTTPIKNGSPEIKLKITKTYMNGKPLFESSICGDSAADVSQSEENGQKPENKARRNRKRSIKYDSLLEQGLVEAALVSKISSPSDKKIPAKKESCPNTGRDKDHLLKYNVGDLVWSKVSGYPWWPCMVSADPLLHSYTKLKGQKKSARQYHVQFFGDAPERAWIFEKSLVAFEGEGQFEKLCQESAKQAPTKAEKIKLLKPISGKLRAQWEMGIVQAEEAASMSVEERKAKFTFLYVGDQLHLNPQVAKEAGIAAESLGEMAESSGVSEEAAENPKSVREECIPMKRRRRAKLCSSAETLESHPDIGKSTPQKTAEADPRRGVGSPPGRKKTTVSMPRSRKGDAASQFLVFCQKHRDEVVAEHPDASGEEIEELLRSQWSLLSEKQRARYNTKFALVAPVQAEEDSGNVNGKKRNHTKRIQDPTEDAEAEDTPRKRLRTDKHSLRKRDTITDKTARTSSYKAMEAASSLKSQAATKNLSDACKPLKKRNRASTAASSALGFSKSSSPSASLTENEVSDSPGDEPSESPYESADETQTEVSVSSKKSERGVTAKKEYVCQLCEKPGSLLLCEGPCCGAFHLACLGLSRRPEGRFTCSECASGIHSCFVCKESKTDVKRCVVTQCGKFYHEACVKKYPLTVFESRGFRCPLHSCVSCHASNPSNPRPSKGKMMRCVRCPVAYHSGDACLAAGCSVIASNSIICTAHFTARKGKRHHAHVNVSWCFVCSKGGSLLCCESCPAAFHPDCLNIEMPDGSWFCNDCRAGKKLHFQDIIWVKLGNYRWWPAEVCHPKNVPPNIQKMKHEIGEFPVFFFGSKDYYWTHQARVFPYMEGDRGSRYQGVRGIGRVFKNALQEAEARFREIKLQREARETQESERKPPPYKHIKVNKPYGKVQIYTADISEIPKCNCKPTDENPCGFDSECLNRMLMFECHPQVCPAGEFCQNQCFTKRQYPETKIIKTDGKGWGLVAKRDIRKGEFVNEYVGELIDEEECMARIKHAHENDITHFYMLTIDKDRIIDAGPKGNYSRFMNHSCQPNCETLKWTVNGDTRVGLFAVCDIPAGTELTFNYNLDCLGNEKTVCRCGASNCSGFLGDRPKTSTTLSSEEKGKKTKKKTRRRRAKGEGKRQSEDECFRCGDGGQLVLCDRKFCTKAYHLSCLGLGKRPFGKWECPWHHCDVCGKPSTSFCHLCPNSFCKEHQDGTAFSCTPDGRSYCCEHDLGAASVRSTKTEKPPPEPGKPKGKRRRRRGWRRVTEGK

[3] = biological target: T1, Histone-lysine N-methyltransferase NSD2; test: Inhibition of NSD2 (unknown origin)
[4] = biological target: T1, Histone-lysine N-methyltransferase NSD2; test: Binding affinity to human biotinylated NSD2 (208 to 368 residues) expressed in Escherichia coli BL21(DE3) by SPR assay
[5] = biological target: T1, Histone-lysine N-methyltransferase NSD2; test: Inhibition of NSD2 (unknown origin) using H3K36 as substrate
[6] = biological target: Histone-lysine N-methyltransferase, H3 lysine-36 specific (Homo sapiens, UniProt Q96L73); test: Inhibition of NSD1 (unknown origin) using H3K36 as substrate
Sequence of Histone-lysine N-methyltransferase, H3 lysine-36 specific (Q96L73 whole entry): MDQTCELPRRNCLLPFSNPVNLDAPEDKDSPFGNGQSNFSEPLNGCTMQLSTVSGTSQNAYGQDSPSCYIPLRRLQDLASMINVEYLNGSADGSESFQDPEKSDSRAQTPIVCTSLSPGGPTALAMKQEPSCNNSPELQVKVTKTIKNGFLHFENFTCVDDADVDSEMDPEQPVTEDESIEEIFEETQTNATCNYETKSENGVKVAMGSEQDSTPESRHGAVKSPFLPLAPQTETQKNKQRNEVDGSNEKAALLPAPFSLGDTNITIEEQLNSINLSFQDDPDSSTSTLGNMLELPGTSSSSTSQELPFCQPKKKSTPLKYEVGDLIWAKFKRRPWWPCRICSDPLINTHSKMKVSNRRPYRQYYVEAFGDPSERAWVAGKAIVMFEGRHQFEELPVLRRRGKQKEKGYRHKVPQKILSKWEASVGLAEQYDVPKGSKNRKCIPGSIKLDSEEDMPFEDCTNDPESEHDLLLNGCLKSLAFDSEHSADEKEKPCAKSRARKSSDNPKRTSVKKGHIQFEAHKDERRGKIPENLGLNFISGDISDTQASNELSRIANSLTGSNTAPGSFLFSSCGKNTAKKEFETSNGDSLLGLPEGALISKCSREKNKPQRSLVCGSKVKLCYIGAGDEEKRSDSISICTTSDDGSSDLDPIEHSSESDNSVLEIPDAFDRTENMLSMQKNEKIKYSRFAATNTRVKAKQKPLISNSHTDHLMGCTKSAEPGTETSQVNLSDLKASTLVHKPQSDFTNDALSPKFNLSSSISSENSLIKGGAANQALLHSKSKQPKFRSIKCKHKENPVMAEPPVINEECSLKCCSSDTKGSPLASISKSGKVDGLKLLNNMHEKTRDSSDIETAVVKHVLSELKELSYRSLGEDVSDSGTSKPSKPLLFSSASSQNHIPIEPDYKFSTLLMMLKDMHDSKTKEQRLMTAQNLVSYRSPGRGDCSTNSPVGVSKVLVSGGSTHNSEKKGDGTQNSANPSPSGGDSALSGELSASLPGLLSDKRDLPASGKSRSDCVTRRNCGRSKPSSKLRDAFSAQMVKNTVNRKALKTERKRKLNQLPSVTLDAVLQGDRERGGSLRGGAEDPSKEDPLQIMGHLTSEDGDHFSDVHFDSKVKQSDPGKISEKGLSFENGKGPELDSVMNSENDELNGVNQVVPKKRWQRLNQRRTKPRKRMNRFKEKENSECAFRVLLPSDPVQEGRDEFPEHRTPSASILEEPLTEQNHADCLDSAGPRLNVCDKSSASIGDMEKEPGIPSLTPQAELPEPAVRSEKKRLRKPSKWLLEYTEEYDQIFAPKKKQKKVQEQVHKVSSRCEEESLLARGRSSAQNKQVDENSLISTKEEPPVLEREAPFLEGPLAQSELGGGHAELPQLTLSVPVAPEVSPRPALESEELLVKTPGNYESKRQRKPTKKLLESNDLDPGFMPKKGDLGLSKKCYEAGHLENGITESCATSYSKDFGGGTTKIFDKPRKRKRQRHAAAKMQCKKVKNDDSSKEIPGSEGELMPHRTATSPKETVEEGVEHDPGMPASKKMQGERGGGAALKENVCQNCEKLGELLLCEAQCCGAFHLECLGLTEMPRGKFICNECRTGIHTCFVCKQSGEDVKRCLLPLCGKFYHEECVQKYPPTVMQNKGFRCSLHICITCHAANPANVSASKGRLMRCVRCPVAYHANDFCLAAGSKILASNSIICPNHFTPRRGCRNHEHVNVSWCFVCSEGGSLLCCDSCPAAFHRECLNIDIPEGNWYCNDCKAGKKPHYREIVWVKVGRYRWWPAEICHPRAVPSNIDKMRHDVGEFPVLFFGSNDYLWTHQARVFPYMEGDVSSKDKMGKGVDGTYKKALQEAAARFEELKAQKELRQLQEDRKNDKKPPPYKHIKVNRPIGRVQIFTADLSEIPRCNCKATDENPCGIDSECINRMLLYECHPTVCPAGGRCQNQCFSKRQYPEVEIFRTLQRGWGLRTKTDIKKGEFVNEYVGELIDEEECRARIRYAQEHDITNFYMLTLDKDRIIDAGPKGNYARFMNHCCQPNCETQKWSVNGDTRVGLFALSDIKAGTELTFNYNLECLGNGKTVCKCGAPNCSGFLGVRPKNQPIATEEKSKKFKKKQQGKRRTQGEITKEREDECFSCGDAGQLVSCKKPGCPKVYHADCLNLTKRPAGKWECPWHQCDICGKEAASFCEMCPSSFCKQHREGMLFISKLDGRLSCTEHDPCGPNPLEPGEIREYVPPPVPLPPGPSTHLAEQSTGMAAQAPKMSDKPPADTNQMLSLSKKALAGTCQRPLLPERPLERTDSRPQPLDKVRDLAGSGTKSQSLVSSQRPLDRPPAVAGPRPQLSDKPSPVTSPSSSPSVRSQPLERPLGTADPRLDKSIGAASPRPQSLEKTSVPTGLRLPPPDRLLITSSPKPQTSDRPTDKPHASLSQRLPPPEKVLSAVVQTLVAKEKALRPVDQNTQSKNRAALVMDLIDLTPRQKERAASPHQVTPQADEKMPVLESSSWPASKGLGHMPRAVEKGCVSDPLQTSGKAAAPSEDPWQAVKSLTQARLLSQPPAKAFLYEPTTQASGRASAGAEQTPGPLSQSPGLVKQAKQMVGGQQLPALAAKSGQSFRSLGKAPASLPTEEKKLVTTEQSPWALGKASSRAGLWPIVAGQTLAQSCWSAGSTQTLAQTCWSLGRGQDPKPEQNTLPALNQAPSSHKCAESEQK

[7] = biological target: T2, Histone-lysine N-methyltransferase NSD3 (Homo sapiens, UniProt Q9BZ95); test: Inhibition of NSD3 (unknown origin) using H3K36 as substrate
T2 sequence (Q9BZ95 whole entry): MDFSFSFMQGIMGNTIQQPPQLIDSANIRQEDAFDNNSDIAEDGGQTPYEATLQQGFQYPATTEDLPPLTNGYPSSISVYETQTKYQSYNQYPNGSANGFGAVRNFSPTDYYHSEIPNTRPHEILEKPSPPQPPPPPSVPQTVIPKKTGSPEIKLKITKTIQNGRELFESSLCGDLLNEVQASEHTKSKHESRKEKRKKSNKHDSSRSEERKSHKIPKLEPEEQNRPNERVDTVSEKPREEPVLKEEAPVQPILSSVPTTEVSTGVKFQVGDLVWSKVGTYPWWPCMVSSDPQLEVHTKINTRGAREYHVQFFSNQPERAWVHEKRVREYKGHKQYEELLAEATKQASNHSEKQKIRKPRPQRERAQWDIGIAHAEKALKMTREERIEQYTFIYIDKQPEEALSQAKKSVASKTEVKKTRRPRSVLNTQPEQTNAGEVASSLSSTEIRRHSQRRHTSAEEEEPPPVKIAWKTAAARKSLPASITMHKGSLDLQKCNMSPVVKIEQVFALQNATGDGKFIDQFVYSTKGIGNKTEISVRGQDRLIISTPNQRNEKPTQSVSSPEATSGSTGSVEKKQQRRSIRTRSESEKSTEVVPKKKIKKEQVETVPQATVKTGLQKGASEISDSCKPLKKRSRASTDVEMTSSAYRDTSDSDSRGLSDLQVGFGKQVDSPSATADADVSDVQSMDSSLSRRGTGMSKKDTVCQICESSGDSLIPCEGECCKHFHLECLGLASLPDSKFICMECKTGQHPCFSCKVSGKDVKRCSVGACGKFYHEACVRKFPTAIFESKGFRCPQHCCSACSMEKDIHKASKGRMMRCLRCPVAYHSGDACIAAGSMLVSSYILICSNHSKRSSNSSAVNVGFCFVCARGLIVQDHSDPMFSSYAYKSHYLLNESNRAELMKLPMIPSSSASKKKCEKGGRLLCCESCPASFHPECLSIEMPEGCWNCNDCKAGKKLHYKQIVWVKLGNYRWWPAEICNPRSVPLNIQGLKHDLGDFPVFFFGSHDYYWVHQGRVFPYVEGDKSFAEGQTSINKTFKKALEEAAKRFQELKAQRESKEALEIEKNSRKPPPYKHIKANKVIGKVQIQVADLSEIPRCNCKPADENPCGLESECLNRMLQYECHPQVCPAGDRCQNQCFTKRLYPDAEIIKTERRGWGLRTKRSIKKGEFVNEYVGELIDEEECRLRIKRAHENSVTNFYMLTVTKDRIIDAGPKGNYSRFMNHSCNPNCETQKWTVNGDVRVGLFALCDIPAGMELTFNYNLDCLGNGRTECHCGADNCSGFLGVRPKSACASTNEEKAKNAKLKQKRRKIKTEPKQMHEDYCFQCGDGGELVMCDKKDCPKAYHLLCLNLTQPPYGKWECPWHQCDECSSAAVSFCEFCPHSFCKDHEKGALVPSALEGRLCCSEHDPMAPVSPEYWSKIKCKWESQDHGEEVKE

[8] = biological target: T1, Histone-lysine N-methyltransferase NSD2; test: Inhibition of NSD2 in human CGTH-W-1 cells assessed as reduction in H3K36me2 level incubated for 72 hrs by ELISA; assay type: cell-based
[9] = biological target: T1, Histone-lysine N-methyltransferase NSD2; test: Inhibition of NSD2 in human KMS-11-Par cells assessed as reduction in H3K36me2 level incubated for 72 hrs by ELISA; assay type: cell-based
SK-OV-3 = test: Antiproliferative activity against human SK-OV-3 cells; assay type: functional, cell-based
PC-3 = test: Antiproliferative activity against human PC-3 cells; assay type: functional, cell-based
MDA-MB-231 = test: Antiproliferative activity against human MDA-MB-231 cells; assay type: functional, cell-based
NCI-H2228 = test: Antiproliferative activity against human NCI-H2228 cells; assay type: functional, cell-based
[10] = biological target: T1, Histone-lysine N-methyltransferase NSD2; test: Inhibition of 15N-labeled NSD2 (953 to 1240 residues) (unknown origin) expressed in Escherichia coli BL21 DE3 using H3K36 as substrate incubated for 60 mins by Alphascreen assay

SMILES: NNc1nc2ccccc2nc1S
IC50 [2]: < 3 µM

SMILES: O=C(NCCCN(Cc1nc2sc3c(c2c(=O)[nH]1)CCCC3)Cc1nc2sc3c(c2c(=O)[nH]1)CCCC3)c1cc2ccccc2c(=O)o1
IC50 [5]: 111 µM
IC50 [6]: 418 µM
IC50 [7]: 60 µM

SMILES: Nc1ncnc2c1ncn2Cc1cc(-c2ccc(F)c(F)c2)ncc1N1CCC[C@](N)(c2ccccn2)C1
IC50 [8]: 0.018 µM
IC50 [9]: 0.041 µM

SMILES: COC(=O)c1cc(NC(=O)Nc2ccc3nnsc3c2)cc(C(=O)OC)c1
IC50 (SK-OV-3): 2.6 µM
IC50 (PC-3): 4.2 µM
IC50 [3]: 3.7 µM
IC50 (MDA-MB-231): 5.1 µM
IC50 (NCI-H2228): 6.8 µM

SMILES: Cn1nnc2ccc(NC(=O)Nc3cccc([N+](=O)[O-])c3)cc21
IC50 [3]: 8.3 µM

SMILES: CC(C)CN[C@@H](CC[C@H](N)C(=O)O)C[C@H]1O[C@@H](n2cnc3c(N)ncnc32)[C@H](O)[C@@H]1O
IC50 [10]: 1.8 µM

SMILES: Nc1ncnc2c1ncn2[C@@H]1O[C@H](C[C@@H](N)CC[C@H](N)C(=O)O)[C@@H](O)[C@H]1O [SINEFUNGIN]
IC50 [10]: 46 µM

Further lines, results first:

IC50 [1]: 0.203 µM
SMILES: Cc1cc(CN)cc(C)c1-c1ncn(C)c1-c1ccnc2cc(F)ccc12

IC50 [3]: 7.5 µM
SMILES: N#Cc1cccc(NC(=O)Nc2ccc3nnsc3c2)c1

Kd [4]: 0.349 µM
SMILES: O=C1COc2cc(C(=O)N(Cc3cccs3)C3CC3)ccc2N1

IC50 [3]: 8.1 µM
SMILES: C=CC(=O)Nc1cc(NC(=O)Nc2ccc3nnsc3c2)cc(C(=O)OC)c1

IC50 [3]: 4.8 µM
SMILES: O=C(Nc1cccc([N+](=O)[O-])c1)Nc1ccc2nnsc2c1

IC50 [3]: 7.3 µM
SMILES: CC(=O)c1ccc(-c2cc(NC(=O)Nc3ccc4nnsc4c3)cc(C(F)(F)F)c2)s1

Kd [4]: > 20 µM
SMILES: CC(C)N(Cc1ccc(C(=O)Nc2ccncn2)cc1)C(=O)c1ccc2c(c1)OCC(=O)N2

IC50 [8]: 0.04 µM
IC50 [9]: 0.034 µM
SMILES: CC[C@H](C)C(=O)[C@@]1(N)CCCN(c2cnc(-c3ccc(F)c(F)c3)cc2Cn2cnc3c(N)ncnc32)C1

IC50 [8]: 0.012 µM
IC50 [9]: 0.078 µM
SMILES: CNC(=O)[C@@]1(N)CCCN(c2cnc(-c3cccc(F)c3)cc2Cn2cnc3c(N)ncnc32)C1
